Results taken from US20080096932A1, “3-Pyridinylethylcarboxamide Derivatives as Fungicides” (priority 2004, published 2008).

Experiments:
[1] = tested on: Alternaria brassicae; assay: in vivo test on Alternaria brassicae (Leaf spot of crucifers); conditions: for effectiveness on Alternaria brassicae: at 330 ppm, comparison compounds of WO 01/11965
Description: in vivo test on Alternaria brassicae (Leaf spot of crucifers)
The active ingredient tested is prepared by potter homogenisation in a concentrated suspension type formulation at 100 g/l. This suspension is then diluted with water to obtain the desired active material concentration.
Radish plants (Pernot variety) in starter cups, sown on a 50/50 peat soil-pozzolana substrate and grown at 18-20° C., are treated at the cotyledon stage by spraying with the aqueous suspension described above.
Plants, used as controls, are treated with an aqueous solution not containing the active material.
After 24 hours, the plants are contaminated by spraying them with an aqueous suspension of Alternaria brassicae spores (40,000 spores per cm^3). The spores are collected from a 12 to 13 days-old culture.
The contaminated radish plants are incubated for 6-7 days at about 18° C., under a humid atmosphere.
Grading is carried out 6 to 7 days after the contamination, in comparison with the control plants.

[2] = tested on: Peronosporaparasitica; assay: efficacy against Peronospora parasitica; assay type: in vivo; conditions: at 330 ppm; comparison compound of WO 01/11965
[3] = tested on: Botrytis cinerea; assay: effectiveness on Botrytis cinerea; assay type: in vivo; conditions: at 330 ppm; comparison compounds of WO 01/11965

SMILES | protection (good (at least 50%) or total) ([1]; 330 ppm, radish plants sprayed 24 h before contamination, grading 6 to 7 days after contamination vs control plants) | efficacy against Peronospora parasitica [2] | effectiveness on Alternaria brassicae [1] | effectiveness on Botrytis cinerea [3]
Cn1cc(C(=O)NCCc2ccc(C(F)(F)F)nc2)c(C(F)(F)F)n1 [Compound A-1, N-[2-(6-trifluoromethyl-3-pyridinyl)ethyl]-1-methyl-3-(trifluoromethyl)-1H-pyrazole-4-carboxamide] | at least 50% | – | – | –
O=C(Cc1cccs1)NCc1ncc(C(F)(F)F)cc1Cl [compound 101, N-{[3-chloro-5-(trifluoromethyl)-2-pyridinyl]methyl}-5-thienylacetamide] | – | no efficacy | poor efficacy | no efficacy
CCNC(=O)C(Cc1ncc(C(F)(F)F)cc1Cl)NC(=O)c1ccccc1 (stereo not shown) [compound 304, N-{1-ethylcarbamoyl-2-[3-chloro-5-(trifluoromethyl)-2-pyridinyl]-ethyl}-benzamide] | – | – | – | zero effectiveness
CCNC(=O)C(Cc1ncc(C(F)(F)F)cc1Cl)NC(=O)c1ccc(Cl)cc1 (stereo not shown) [compound 306, N-{1-ethylcarbamoyl-2-[3-chloro-5-(trifluoromethyl) -2-pyridinyl]ethyl}-4-chlorobenzamide] | – | – | – | zero effectiveness
CCNC(=O)C(Cc1ncc(C(F)(F)F)cc1Cl)NC(=O)c1cccc([N+](=O)[O-])c1 (stereo not shown) [compound 307, N-{1-ethylcarbamoyl-2-[3-chloro-5-(trifluoromethyl)-2-pyridinyl]ethyl}-3-nitrobenzamide] | – | – | poor effectiveness | zero effectiveness
CCNC(=O)C(Cc1ncc(C(F)(F)F)cc1Cl)NC(=O)c1ccccc1Br (stereo not shown) [compound 310, N-{1-ethylcarbamoyl-2-[3-chloro-5-(trifluoromethyl)-2-pyridinyl]ethyl}-2-bromobenzamide] | – | – | – | zero effectiveness
CNC(=O)C(Cc1ncc(C(F)(F)F)cc1Cl)NC(=O)c1ccccc1 (stereo not shown) [compound 314, N-{1-methylcarbamoyl-2-[3-chloro-5-(trifluoromethyl) -2-pyridinyl]ethyl}-benzamide] | – | – | – | zero effectiveness
CNC(=O)C(Cc1ncc(C(F)(F)F)cc1Cl)NC(=O)c1ccc(OC)cc1 (stereo not shown) [compound 315, N-{1-methylcarbamoyl-2-[3-chloro-5-(trifluoromethyl)-2-pyridinyl]ethyl}-4-methoxybenzamide] | – | – | – | zero effectiveness
CNC(=O)C(Cc1ncc(C(F)(F)F)cc1Cl)NC(=O)c1ccc(-c2ccccc2)cc1 (stereo not shown) [compound 316, N-{1-methylcarbamoyl-2-[3-chloro-5-(trifluoromethyl)-2-pyridinyl]-ethyl}-4-phenylbenzamide] | – | – | poor effectiveness | zero effectiveness
